Measurements reported in patent US20140058103A1, “Inhibitors of PI3K-Delta and Methods of Their Use and Manufacture” (Exelixis, Inc., priority 2010, published 2014).

These molecules were tested against PI3K delta (Homo sapiens, UniProt O00329) (assay: Luciferase-coupled chemiluminescence kinase assay (ATP consumption, KinaseGlo)).
Sequence of PI3K delta (O00329 whole entry): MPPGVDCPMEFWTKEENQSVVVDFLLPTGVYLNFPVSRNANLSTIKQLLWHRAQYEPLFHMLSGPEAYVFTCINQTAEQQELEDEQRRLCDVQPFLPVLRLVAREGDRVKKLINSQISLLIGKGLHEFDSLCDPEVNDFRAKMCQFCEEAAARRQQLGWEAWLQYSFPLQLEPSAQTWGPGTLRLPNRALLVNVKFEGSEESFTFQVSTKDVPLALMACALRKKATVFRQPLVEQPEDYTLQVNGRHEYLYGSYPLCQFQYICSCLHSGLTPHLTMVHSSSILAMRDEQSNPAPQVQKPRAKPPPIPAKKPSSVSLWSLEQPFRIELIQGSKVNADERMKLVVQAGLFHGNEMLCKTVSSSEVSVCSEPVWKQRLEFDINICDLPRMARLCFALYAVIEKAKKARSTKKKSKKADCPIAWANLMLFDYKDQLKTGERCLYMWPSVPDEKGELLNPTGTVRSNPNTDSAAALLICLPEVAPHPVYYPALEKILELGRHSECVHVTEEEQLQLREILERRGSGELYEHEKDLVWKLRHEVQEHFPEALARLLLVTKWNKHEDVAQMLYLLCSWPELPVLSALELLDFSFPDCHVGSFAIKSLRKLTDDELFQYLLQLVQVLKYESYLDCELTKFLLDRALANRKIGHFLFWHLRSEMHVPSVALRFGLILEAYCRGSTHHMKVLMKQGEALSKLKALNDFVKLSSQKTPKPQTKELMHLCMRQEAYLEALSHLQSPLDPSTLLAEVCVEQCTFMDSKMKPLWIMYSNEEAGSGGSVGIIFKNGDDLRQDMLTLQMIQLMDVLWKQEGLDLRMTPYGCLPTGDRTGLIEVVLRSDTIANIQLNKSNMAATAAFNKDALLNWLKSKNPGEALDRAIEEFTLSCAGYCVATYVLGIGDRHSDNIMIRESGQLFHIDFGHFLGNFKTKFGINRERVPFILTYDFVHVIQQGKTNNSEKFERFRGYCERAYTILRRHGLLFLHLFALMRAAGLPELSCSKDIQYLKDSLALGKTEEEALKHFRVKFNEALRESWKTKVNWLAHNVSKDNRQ
Sequence of PI3K delta (P27986 whole entry partner): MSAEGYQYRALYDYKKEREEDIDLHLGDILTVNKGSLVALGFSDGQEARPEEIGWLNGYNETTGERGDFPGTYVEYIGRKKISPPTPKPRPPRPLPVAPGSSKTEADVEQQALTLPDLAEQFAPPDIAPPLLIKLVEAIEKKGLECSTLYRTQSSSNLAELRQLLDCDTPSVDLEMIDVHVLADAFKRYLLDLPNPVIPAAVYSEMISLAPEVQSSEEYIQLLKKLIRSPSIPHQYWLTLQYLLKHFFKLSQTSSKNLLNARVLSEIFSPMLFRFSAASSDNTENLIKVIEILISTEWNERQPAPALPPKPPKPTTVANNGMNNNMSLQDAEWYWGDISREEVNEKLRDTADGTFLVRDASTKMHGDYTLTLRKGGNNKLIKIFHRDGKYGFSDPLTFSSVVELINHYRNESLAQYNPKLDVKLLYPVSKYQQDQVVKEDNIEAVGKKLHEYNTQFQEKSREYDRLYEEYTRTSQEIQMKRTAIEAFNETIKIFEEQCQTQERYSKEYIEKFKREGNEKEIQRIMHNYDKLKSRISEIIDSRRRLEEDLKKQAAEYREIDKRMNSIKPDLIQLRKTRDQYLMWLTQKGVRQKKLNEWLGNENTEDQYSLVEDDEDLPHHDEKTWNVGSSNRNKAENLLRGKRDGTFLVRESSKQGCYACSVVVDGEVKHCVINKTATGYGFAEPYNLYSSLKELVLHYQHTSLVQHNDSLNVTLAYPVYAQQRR
Format: biochemical
Description: Kinase activity and compound inhibition were investigated using one or more of the assay formats described below. The ATP concentrations used in the various assays were approximately equal to or less than the KM for each of the respective kinases. Dose-response experiments were performed using an intra-plate dilution scheme with 10 different inhibitor concentrations in a 384-well microtiter plate. IC50 values were calculated by nonlinear regression analysis using the four-parameter equation listed below:
Y=min+(max−min)/(1+(X/IC50)^N) Equation 1
Typically N should approximate unity. Curve fitting was performed using XLFit or ActivityBase.
Kinase activity is measured as the percent of ATP consumed following the kinase reaction using luciferase-luciferin-coupled chemiluminescence. […] Kinase reactions were initiated by combining test compounds, kinase, and ATP in a 20 μL volume (6 μL volume for 1536-well plate). The reaction mixture was incubated at ambient temperature for 2 h. Following the kinase reaction, a 20 μL (or […] for 1536-well plate) aliquot of KinaseGlo (Promega) was added and the chemiluminescence signal measured using an EnVision plate reader (Perkin Elmer).
Work on `CCOC(=O)c1nc2c(N3CCC(n4c(=O)[nH]c5ccccc54)CC3)ncnc2n1C` [Compound 80, Ethyl 9-methyl-6-[4-(2-oxo-2,3-dihydro-1H-benzimidazol-1-yl)piperidin-1-yl]-9H-purine-8-carboxylate] yielded an IC50 of 500 to 1500 nM. Molecule `Cn1c(C(=O)NCc2ccco2)nc2c(N3CCC4(CC3)C(=O)Nc3ccccc34)ncnc21` [Compound 17, N-(furan-2-ylmethyl)-9-methyl-6-(2-oxo-1,2-dihydro-1′H-spiro[indole-3,4′-piperidin]-1′-yl)-9H-purine-8-carboxamide] has an IC50 of 50 to 250 nM. `Cn1c(C(=O)NCC(F)(F)F)nc2c(N3CCC4(CC3)C(=O)Nc3ccccc34)ncnc21` [Compound 30, 9-methyl-6-(2-oxo-1,2-dihydro-1′H-spiro[indole-3,4′-piperidin]-1′-yl)-N-(2,2,2-trifluoroethyl)-9H-purine-8-carboxamide] showed an IC50 of less than 50 nM. In the case of `CCn1c(C(=O)NCC(F)(F)F)nc2c(N3CCC4(CC3)C(=O)Nc3ccccc34)ncnc21` [Compound 160, 9-ethyl-6-(2-oxo-1,2-dihydro-1′H-spiro[indole-3,4′-piperidin]-1′-yl)-N-(2,2,2-trifluoroethyl)-9H-purine-8-carboxamide], the IC50 is reported as less than 50 nM. `Cn1c(C(=O)NCCCO)nc2c(N3CCC4(CC3)C(=O)Nc3ccccc34)ncnc21` [Compound 19, N-(3-hydroxypropyl)-9-methyl-6-(2-oxo-1,2-dihydro-1′H-spiro[indole-3,4′-piperidin]-1′-yl)-9H-purine-8-carboxamide] showed an IC50 of 50 to 250 nM. `Cn1c(-c2cncc(Br)c2)nc2c(N3CCC(n4c(=O)[nH]c5ccccc54)CC3)ncnc21` [Compound 285, 1-{1-[8-(5-bromopyridin-3-yl)-9-methyl-9H-purin-6-yl]piperidin-4-yl}-1,3-dihydro-2H-benzimidazol-2-one] showed an IC50 of less than 50 nM. `Cc1nc2c(N3CCC(n4c(=O)[nH]c5ccccc54)CC3)ncnc2n1C` [Compound 81, 1-[1-(8,9-Dimethyl-9H-purin-6-yl)piperidin-4-yl]-1,3-dihydro-2H-benzimidazol-2-one] was tested, and the IC50 was 500 to 1500 nM. `Cn1c(C(=O)NCC(F)(F)F)nc2c(N3CCC(n4c(=O)[nH]c5ccccc54)CC3)ncnc21` [Compound 60, 9-methyl-6-[4-(2-oxo-2,3-dihydro-1H-benzimidazol-1-yl)piperidin-1-yl]-N-(2,2,2-trifluoromethyl)-9H-purine-8-carboxamide] gave an IC50 of less than 50 nM. `Cn1cc(-c2nc3c(N4CCC5(CC4)C(=O)Nc4ccccc45)ncnc3n2C)cn1` [Compound 239, 1′-[9-methyl-8-(1-methyl-1H-pyrazol-4-yl)-9H-purin-6-yl]spiro[indole-3,4′-piperidin]-2(1H)-one] gave an IC50 of less than 50 nM. Work on `Cn1c(C(=O)NCC2CCCO2)nc2c(N3CCC4(CC3)C(=O)Nc3ccccc34)ncnc21` (centres unmarked) [Compound 85, 9-methyl-6-(2-oxo-1,2-dihydro-1′H-spiro[indole-3,4′-piperidin]-1′-yl)-N-(tetrahydrofuran-2-ylmethyl)-9H-purine-8-carboxamide] yielded an IC50 of 500 to 1500 nM. Molecule `Cn1c(C(=O)NCC2CC2)nc2c(N3CCC4(C3)C(=O)Nc3ccccc34)ncnc21` (centres unmarked) [Compound 98, N-(cyclopropylmethyl)-9-methyl-6-(2-oxo-1,2-dihydro-1′H-spiro[indole-3,3′-pyrrolidin]-1′-yl)-9H-purine-8-carboxamide] has an IC50 of 500 to 1500 nM. Molecule `Cn1cc(-c2nc3c(N4CCC(n5c(=O)[nH]c6ccccc65)CC4)ncnc3n2C)cn1` [Compound 149, 1-{1-[9-Methyl-8-(1-methyl-1H-pyrazol-4-yl)-9H-purin-6-yl]piperidin-4-yl}-1,3-dihydro-2H-benzimidazol-2-one] has an IC50 of less than 50 nM. `CCn1c(C(=O)NC(C)C)nc2c(N3CCC(n4c(=O)[nH]c5ccccc54)CC3)ncnc21` [Compound 196, 9-ethyl-N-(1-methylethyl)-6-[4-(2-oxo-2,3-dihydro-1H-benzimidazol-1-yl)piperidin-1-yl]-9H-purine-8-carboxamide] was tested, and the IC50 was less than 50 nM. `CCNC(=O)c1nc2c(N3CCC4(CC3)C(=O)Nc3ccccc34)ncnc2n1C` [Compound 32, N-ethyl-9-methyl-6-(2-oxo-1,2-dihydro-1H-spiro[indole-3,4′-piperidin]-1′-yl)-9H-purine-8-carboxamide] gave an IC50 of 50 to 250 nM. With `CCCNC(=O)c1nc2c(N3CCC4(CC3)C(=O)Nc3ccccc34)ncnc2n1C` [Compound 36, 9-methyl-6-(2-oxo-1,2-dihydro-1′H-spiro[indole-3,4′-piperidin]-1′-yl)-N-propyl-9H-purine-8-carboxamide] the IC50 was 50 to 250 nM. `Cn1c(C(=O)NCC2CCCCO2)nc2c(N3CCC4(CC3)C(=O)Nc3ccccc34)ncnc21` (centres unmarked) [Compound 82, 9-methyl-6-(2-oxo-1,2-dihydro-1′H-spiro[indole-3,4′-piperidin]-1′-yl)-N-(tetrahydro-2H-pyran-2-ylmethyl)-9H-purine-8-carboxamide] showed an IC50 of 500 to 1500 nM. `Cn1c(C(=O)NCC2CC2)nc2c(N3CCC4(CC3)C(=O)Oc3ccccc34)ncnc21` [Compound 129, N-(cyclopropylmethyl)-9-methyl-6-(2-oxo-1′H-spiro[1-benzofuran-3,4′-piperidin]-1′-yl)-9H-purine-8-carboxamide] gave an IC50 of 250 to 500 nM. `Cn1cc(-c2nc3c(N4CCC(CN)(c5ccccc5)CC4)ncnc3n2C)cn1` [Compound 1, 1-{1-[9-methyl-8-(1-methyl-1H-pyrazol-4-yl)-9H-purin-6-yl]-4-phenylpiperidin-4-yl}methanamine] gave an IC50 of 500 to 1500 nM. Work on `CCn1c(-c2cccnc2)nc2c(N3CCC(n4c(=O)[nH]c5ccccc54)CC3)ncnc21` [Compound 296, 1-[1-(9-ethyl-8-pyridin-3-yl-9H-purin-6-yl)piperidin-4-yl]-1,3-dihydro-2H-benzimidazol-2-one] yielded an IC50 of less than 50 nM. For `Cn1cc(-c2nc3c(N4CCC(n5c(=O)[nH]c6c(F)cccc65)CC4)ncnc3n2C)cn1` [Compound 295, 4-fluoro-1-{1-[9-methyl-8-(1-methyl-1H-pyrazol-4-yl)-9H-purin-6-yl]piperidin-4-yl}-1,3-dihydro-2H-benzimidazol-2-one], the IC50 was less than 50 nM. `C/C=C/c1nc2c(N3CCC(n4c(=O)[nH]c5ccccc54)CC3)ncnc2n1C` [Compound 144, 1-(1-{9-methyl-8-[(1E)-prop-1-en-1-yl]-9H-purin-6-yl}piperidin-4-yl)-1,3-dihydro-2H-benzimidazol-2-one] showed an IC50 of 500 to 1500 nM. For `CCn1cc(-c2nc3c(N4CCC(n5c(=O)[nH]c6c(F)cccc65)CC4)ncnc3n2C)cn1` [Compound 344, 1-{1-[8-(1-ethyl-1H-pyrazol-4-yl)-9-methyl-9H-purin-6-yl]piperidin-4-yl}-4-fluoro-1,3-dihydro-2H-benzimidazol-2-one], the IC50 was less than 50 nM. `CCn1c(C(=O)NCC2(O)CC2)nc2c(N3CCC4(CC3)C(=O)Nc3ccccc34)ncnc21` [Compound 215, 9-ethyl-N-[(1-hydroxycyclopropyl)methyl]-6-(2-oxo-1,2-dihydro-1′H-spiro[indole-3,4′-piperidin]-1′-yl)-9H-purine-8-carboxamide] gave an IC50 of less than 50 nM. For `Cn1c(C(=O)N2CC(F)(F)C2)nc2c(N3CCC(n4c(=O)[nH]c5ccccc54)CC3)ncnc21` [Compound 104, 1-(1-{8-[(3,3-difluoroazetidin-1-yl)carbonyl]-9-methyl-9H-purin-6-yl}piperidin-4-yl)-1,3-dihydro-2H-benzimidazol-2-one], the IC50 was 50 to 250 nM. In the case of `Cn1c(-c2cccnc2)nc2c(N3CCC4(CC3)C(=O)Nc3ccccc34)ncnc21` [Compound 290, 1′-(9-methyl-8-pyridin-3-yl-9H-purin-6-yl)spiro[indole-3,4′-piperidin]-2(1H)-one], the IC50 is reported as less than 50 nM. `Cn1c(-c2ccoc2)nc2c(N3CCC(n4c(=O)[nH]c5ccccc54)CC3)ncnc21` [Compound 265, 1-[1-(8-furan-3-yl-9-methyl-9H-purin-6-yl)piperidin-4-yl]-1,3-dihydro-2H-benzimidazol-2-one] was tested, and the IC50 was 50 to 250 nM. `Cc1c(-c2nc3c(N4CCC(n5c(=O)[nH]c6ncccc65)CC4)ncnc3n2C)cnn1C` [Compound 331, 1-{1-[8-(1,5-dimethyl-1H-pyrazol-4-yl)-9-methyl-9H-purin-6-yl]piperidin-4-yl}-1,3-dihydro-2H-imidazo[4,5-b]pyridin-2-one] showed an IC50 of less than 50 nM. Molecule `Cn1c(C(=O)NCC2CC2)nc2c(N3CCC4(CC3)Nc3ccccc3NC4=O)ncnc21` [Compound 249, N-(cyclopropylmethyl)-9-methyl-6-(3′-oxo-3′,4′-dihydro-1H,1′H-spiro[piperidine-4,2′-quinoxalin]-1-yl)-9H-purine-8-carboxamide] has an IC50 of 500 to 1500 nM. `CON(C)C(=O)c1nc2c(N3CCC(n4c(=O)[nH]c5ccccc54)CC3)ncnc2n1C` [Compound 94, N,9-dimethyl-N-(methyloxy)-6-[4-(2-oxo-2,3-dihydro-1H-benzimidazol-1-yl)piperidin-1-yl]-9H-purine-8-carboxamide] gave an IC50 of 500 to 1500 nM. `Cn1c(C(=O)NCC2CC2)nc2c(N3CCC4(CC3)CC(=O)Nc3ccccc3O4)ncnc21` [Compound 170, N-(cyclopropylmethyl)-9-methyl-6-(4-oxo-4,5-dihydro-1′H,3H-spiro[1,5-benzoxazepine-2,4′-piperidin]-1′-yl)-9H-purine-8-carboxamide] gave an IC50 of 250 to 500 nM. Molecule `Cn1c(C(=O)NC2CC2)nc2c(N3CCC(n4c(=O)[nH]c5ccccc54)CC3)ncnc21` [Compound 43, N-cyclopropyl-9-methyl-6-[4-(2-oxo-2,3-dihydro-1H-benzimidazol-1-yl)piperidin-1-yl]-9H-purine-8-carboxamide] has an IC50 of 50 to 250 nM. `CN(C)c1ncc(-c2nc3c(N4CCC(n5c(=O)[nH]c6ccccc65)CC4)ncnc3n2C)cn1` [Compound 311, 1-(1-{8-[2-(dimethylamino)pyrimidin-5-yl]-9-methyl-9H-purin-6-yl}piperidin-4-yl)-1,3-dihydro-2H-benzimidazol-2-one] was tested, and the IC50 was less than 50 nM.
